In this test the target is PIM1 (Homo sapiens (Human), UniProt P11309). In words: biochemical. In kind it is biochemical. Particulars: 20 pM PIM1, 1 μM FAM-peptide, 10 μM ATP, 90 minutes at room temperature; read-out: PIM1 LC3K (KI).
Sequence of PIM1 (P11309 whole entry): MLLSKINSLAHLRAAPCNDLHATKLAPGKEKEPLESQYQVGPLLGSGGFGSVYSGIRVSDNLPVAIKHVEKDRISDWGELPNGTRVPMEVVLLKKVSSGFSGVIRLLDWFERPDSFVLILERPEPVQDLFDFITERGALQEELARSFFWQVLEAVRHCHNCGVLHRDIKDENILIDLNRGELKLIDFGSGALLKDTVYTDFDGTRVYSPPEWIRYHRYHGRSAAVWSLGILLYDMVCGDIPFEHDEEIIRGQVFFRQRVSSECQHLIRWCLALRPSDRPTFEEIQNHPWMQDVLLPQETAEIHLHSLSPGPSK
As a reminder, the Ki is the dissociation constant of the complex between target and ligand, obtained from inhibition or displacement. Take `Cn1ncc(NC(=O)c2ccc(F)c(-c3c(F)cc(C4(O)CCC4)cc3F)n2)c1[C@@H]1CC[C@@H](N)[C@@H](F)CO1` [Example 290, N-(5-((2S,5R,6R)-5-amino-6-fluorooxepan-2-yl)-1-methyl-1H-pyrazol-4-yl)-6-(2,6-difluoro-4-(1-hydroxycyclobutyl)phenyl)-5-fluoropicolinamide]: the Ki was found to be 0.0131 nM.

Regarding `COCCOc1cc(F)c(-c2nc(C(=O)Nc3cnn(C)c3[C@@H]3CC[C@@H](N)[C@@H](F)CO3)ccc2F)c(F)c1` [Example 189, N-(5-((2S,5R,6R)-5-Amino-6-fluorooxepan-2-yl)-1-methyl-1H-pyrazol-4-yl)-6-(2,6-difluoro-4-(2-methoxyethoxy)phenyl)-5-fluoropicolinamide], the inhibition constant Ki came out at 0.025 nM.

On to `COc1ccc(F)c(F)c1-c1nc(C(=O)Nc2cnn(C)c2[C@@H]2CC[C@@H](N)[C@@H](F)CO2)c(N)s1` [Example 277, 5-amino-N-(5-((2S,5R,6R)-5-amino-6-fluorooxepan-2-yl)-1-methyl-1H-pyrazol-4-yl)-2-(2,3-difluoro-6-methoxyphenyl)thiazole-4-carboxamide], for which the Ki was found to be 0.143 nM.

On to `Cn1ncc(NC(=O)c2nc(-c3c(F)cccc3F)sc2N)c1[C@H]1CC(F)[C@@H](N)CCO1` (stereo partly drawn) [Example 151, 5-Amino-N-[5-[(2R,5S)-5-amino-4-fluoro-oxepan-2-yl]-1-methyl-pyrazol-4-yl]-2-(2,6-difluorophenyl)thiazole-4-carboxamide], for which the Ki amounted to 0.068 nM.

With `Cn1ncc(NC(=O)c2nc(-c3c(F)cccc3F)sc2N)c1[C@@H]1C[C@H](N)CCO1` [Example 160, 5-Amino-N-[5-[(2S,4R)-4-aminotetrahydropyran-2-yl]-1-methyl-pyrazol-4-yl]-2-(2,6-difluorophenyl)thiazole-4-carboxamide], the Ki was found to be 0.248 nM.

In the case of `Cn1ncc(NC(=O)c2nc(-c3ccncc3F)sc2N)c1[C@@H]1CC[C@@H](N)[C@@H](F)CO1` [Example 182, 5-Amino-N-[5-[(2S,5R,6R)-5-amino-6-fluoro-oxepan-2-yl]-1-methyl-pyrazol-4-yl]-2-(3-fluoro-4-pyridyl)thiazole-4-carboxamide], the inhibition constant Ki came to 0.051 nM.

As to `Cn1ncc(NC(=O)c2csc(-n3ncc4c3CCCC4)n2)c1[C@@H]1CC[C@@H](N)[C@H](F)CO1` [Example 389, N-(5-((2S,5R,6S)-5-amino-6-fluorooxepan-2-yl)-1-methyl-1H-pyrazol-4-yl)-2-(4,5,6,7-tetrahydro-1H-indazol-1-yl)thiazole-4-carboxamide], the Ki worked out at 0.02 nM.

Take `Cn1ncc(NC(=O)c2nc(-c3c(F)cccc3F)sc2N)c1C1CCCCO1` (stereo not shown) [Example 104, 5-amino-2-(2,6-difluorophenyl)-N-(1-methyl-5-tetrahydropyran-2-yl-pyrazol-4-yl)thiazole-4-carboxamide]: the Ki is 0.424 nM.

Take `Cn1ncc(NC(=O)c2nc(-c3c(F)cccc3F)sc2N)c1C1CC(F)(F)CC(N)CO1` (stereo not shown) [Example 122, 5-amino-N-[5-(6-amino-4,4-difluoro-oxepan-2-yl)-1-methyl-pyrazol-4-yl]-2-(2,6-difluorophenyl)thiazole-4-carboxamide]: the Ki was 0.014 nM.

On to `Cn1cc(-c2nc(C(=O)Nc3cnn(C)c3[C@@H]3CC[C@@H](N)[C@@H](F)CO3)cs2)c(C2CC2)n1` [Example 253, N-(5-((2S,5R,6R)-5-amino-6-fluorooxepan-2-yl)-1-methyl-1H-pyrazol-4-yl)-2-(3-cyclopropyl-1-methyl-1H-pyrazol-4-yl)thiazole-4-carboxamide], for which the inhibition constant Ki is 0.253 nM.

Turning to `Cn1ncc(NC(=O)c2nc(C3CCCC3)sc2N)c1[C@@H]1CC[C@@H](N)[C@H](F)CO1` [Example 334, 5-amino-N-(5-((2S,5R,6S)-5-amino-6-fluorooxepan-2-yl)-1-methyl-1H-pyrazol-4-yl)-2-cyclopentylthiazole-4-carboxamide], the Ki was 0.453 nM.

In the case of `Cn1ncc(NC(=O)c2nc(-c3c(F)cccc3F)sc2N)c1C1C[C@@H](N)[C@H](F)CCO1` (stereo partly drawn) [Example 141, 5-amino-N-(5-((4R,5R)-4-amino-5-fluorooxepan-2-yl)-1-methyl-1H-pyrazol-4-yl)-2-(2,6-difluorophenyl)thiazole-4-carboxamide], the Ki turned out to be 0.07 nM.

As to `Cn1ncc(NC(=O)c2csc(-c3cnn(CC(C)(C)O)c3)n2)c1[C@@H]1CC[C@@H](N)[C@H](F)CO1` [Example 228, N-(5-((2S,5R,6S)-5-amino-6-fluorooxepan-2-yl)-1-methyl-1H-pyrazol-4-yl)-2-(1-(2-hydroxy-2-methylpropyl)-1H-pyrazol-4-yl)thiazole-4-carboxamide], the Ki came to 0.124 nM.

Turning to `Cn1ncc(NC(=O)c2csc(-c3cccc(Cl)c3F)n2)c1[C@@H]1CC[C@@H](N)[C@H](F)CO1` [Example 308, N-(5-((2S,5R,6S)-5-amino-6-fluorooxepan-2-yl)-1-methyl-1H-pyrazol-4-yl)-2-(3-chloro-2-fluorophenyl)thiazole-4-carboxamide], the Ki turned out to be 0.054 nM.

On to `COC(C)c1cc(F)c(-c2nc(C(=O)Nc3cnn(C)c3[C@@H]3CC[C@@H](N)[C@@H](F)CO3)ccc2F)c(F)c1` (stereo partly drawn) [Example 211, N-(5-((2S,5R,6R)-5-amino-6-fluorooxepan-2-yl)-1-methyl-1H-pyrazol-4-yl)-6-(2,6-difluoro-4-(1-methoxyethyl)phenyl)-5-fluoropicolinamide], for which the Ki turned out to be 0.037 nM.

For the compound `Cn1ncc(NC(=O)c2csc(-c3cnn(C4CC4)c3)n2)c1[C@@H]1CC[C@@H](N)[C@H](F)CO1` [Example 235, N-(5-((2S,5R,6S)-5-amino-6-fluorooxepan-2-yl)-1-methyl-1H-pyrazol-4-yl)-2-(1-cyclopropyl-1H-pyrazol-4-yl)thiazole-4-carboxamide], the Ki turned out to be 0.068 nM.

On to `Cn1ncc(NC(=O)c2ccc(F)c(-c3c(F)cc(C4(O)CC4)cc3F)n2)c1[C@@H]1CC[C@@H](N)[C@H](F)CO1` [Example 204, N-(5-((2S,5R,6S)-5-amino-6-fluorooxepan-2-yl)-1-methyl-1H-pyrazol-4-yl)-6-(2,6-difluoro-4-(1-hydroxycyclopropyl)phenyl)-5-fluoropicolinamide], for which the Ki is 0.001 nM.

As for `COC1(c2cc(F)c(-c3nc(C(=O)Nc4cnn(C)c4[C@@H]4CC[C@@H](N)[C@@H](F)CO4)ccc3F)c(F)c2)COC1` [Example 203, N-(5-((2S,5R,6R)-5-amino-6-fluorooxepan-2-yl)-1-methyl-1H-pyrazol-4-yl)-6-(2,6-difluoro-4-(3-methoxyoxetan-3-yl)phenyl)-5-fluoropicolinamide], the Ki was found to be 0.119 nM.

In the case of `Cn1ncc(NC(=O)c2csc(-n3ncc4ccccc43)n2)c1[C@@H]1CC[C@@H](N)[C@H](F)CO1` [Example 395, N-(5-((2S,5R,6S)-5-amino-6-fluorooxepan-2-yl)-1-methyl-1H-pyrazol-4-yl)-2-(1H-indazol-1-yl)thiazole-4-carboxamide], the Ki is 0.085 nM.

Take `CO[C@H]1CO[C@H](c2c(NC(=O)c3nc(-c4ccccc4F)sc3N)cnn2C)CC[C@H]1N` [Example 183, 5-Amino-N-[5-[(2S,5R,6R)-5-amino-6-methoxy-oxepan-2-yl]-1-methyl-pyrazol-4-yl]-2-(2-fluorophenyl)thiazole-4-carboxamide]: the Ki is 0.0143 nM.

Take `Cn1ncc(NC(=O)c2nc(-c3c(F)cccc3F)sc2N)c1[C@H]1OC[C@@](C)(CO)CO1` [Example 166, 5-Amino-2-(2,6-difluorophenyl)-N-[5-[5-(hydroxymethyl)-5-methyl-1,3-dioxan-2-yl]-1-methyl-pyrazol-4-yl]thiazole-4-carboxamide]: the Ki was found to be 0.514 nM.

Take `Cc1cccc(F)c1-c1nc(C(=O)Nc2cnn(C)c2[C@@H]2CC[C@@H](N)[C@H](F)CO2)c(N)s1` [Example 330, 5-amino-N-(5-((2S,5R,6S)-5-amino-6-fluorooxepan-2-yl)-1-methyl-1H-pyrazol-4-yl)-2-(2-fluoro-6-methylphenyl)thiazole-4-carboxamide]: the Ki turned out to be 0.016 nM.

With `Cn1ncc(NC(=O)c2nc(-c3cccc(Cl)c3F)sc2N)c1[C@@H]1CC[C@@H](N)[C@H](F)CO1` [Example 338, 5-amino-N-(5-((2S,5R,6S)-5-amino-6-fluorooxepan-2-yl)-1-methyl-1H-pyrazol-4-yl)-2-(3-chloro-2-fluorophenyl)thiazole-4-carboxamide], the Ki worked out at 0.007 nM.

For the compound `COc1ccc(F)c(-c2nc(C(=O)Nc3cnn(C)c3[C@@H]3CC[C@@H](N)[C@H](F)CO3)cs2)c1F` [Example 229, N-(5-((2S,5R,6S)-5-amino-6-fluorooxepan-2-yl)-1-methyl-1H-pyrazol-4-yl)-2-(2,6-difluoro-3-methoxyphenyl)thiazole-4-carboxamide], the Ki came out at 0.001 nM.

Turning to `C[C@@H]1CC(N)CC[C@H](c2c(NC(=O)c3nc(-c4c(F)cccc4F)sc3N)cnn2C)O1` (stereo partly drawn) [Example 113, 5-amino-N-(5-((2R,7R)-5-amino-7-methyloxepan-2-yl)-1-methyl-1H-pyrazol-4-yl)-2-(2,6-difluorophenyl)thiazole-4-carboxamide], the Ki was determined as 0.019 nM.

As for `Cn1ncc(NC(=O)c2nc(-c3c(F)cccc3F)sc2N)c1[C@H]1C[C@@H](N)CCO1` (stereo in doubt) [Example 158, 5-Amino-N-[5-[4-aminotetrahydropyran-2-yl]-1-methyl-pyrazol-4-yl]-2-(2,6-difluorophenyl)thiazole-4-carboxamide], the Ki is 0.032 nM.

As to `Cn1ncc(NC(=O)c2ccc(F)c(-c3c(F)cc(C(C)(C)O)cc3F)n2)c1[C@@H]1CC[C@@H](N)[C@@H](F)CO1` [Example 289, N-(5-((2S,5R,6R)-5-amino-6-fluorooxepan-2-yl)-1-methyl-1H-pyrazol-4-yl)-6-(2,6-difluoro-4-(2-hydroxypropan-2-yl)phenyl)-5-fluoropicolinamide], the Ki was 0.08 nM.

As to `CC(O)c1cc(F)c(-c2nc(C(=O)Nc3cnn(C)c3[C@@H]3CC[C@@H](N)[C@H](F)CO3)ccc2F)c(F)c1` (stereo partly drawn) [Example 207, N-(5-((2S,5R,6S)-5-amino-6-fluorooxepan-2-yl)-1-methyl-1H-pyrazol-4-yl)-6-(2,6-difluoro-4-(1-hydroxyethyl)phenyl)-5-fluoropicolinamide], the inhibitory constant (Ki) amounted to 0.017 nM.

For the origin of these results see patent publication US9328106B2, “Cyclic ether pyrazol-4-yl-heterocyclyl-carboxamide compounds and methods of use” (Genentech, Inc., priority 2012, dated 2016).
